{"source": "patent US9540418B2", "about": "“Polypeptide specifically binding to rare earth nanoparticles and use thereof” (University of Science and Technology of China, priority 2012, dated 2017)", "key": {"HeLa-LC3 cells": {"tested_on": "HeLa-LC3 cells", "assay": "RE-1 blocking of nanophosphor-induced autophagy (LC3 aggregates and vacuoles)", "type": "cell-based", "details": "nanophosphors coated with RE-1, 24 hr", "description": "The rare-earth upconversion nanophosphors (UCN, UCP, UCN-S) coated with RE-1 were prepared as follows: 50 μg, 10 μg, and 350 μg RE-1 was mixed with 100 μg UCN, UCP, or UCN-S, respectively, incubated at 37° C. for 2 hr, centrifuged at 12000 rpm, and then washed with water for 3 times to remove the excess and unbound RE-1 peptides. The resultant precipitate was resuspended in 100 μL water.\nHeLa-LC3 cells were inoculated into a 96-well cell culturing plate at a density of about 1-2×10^4 cells/well, and cultured overnight for further use. At first, the medium was replaced with fresh DMEM medium, to which UCN, UCP, or UCN-S with or without the coating of RE-1 peptides was added at different concentrations (0 μg/mL, 10 μg/mL, 100 μg/mL, 1000 μg/mL). After culturing for 24 hr, the fluorescence generated by GFP reporter gene was observed, imaged, and measured under a fluorescence microscope.\nThe ability to induce cell autophagy was estimated by determining the numbers of LC3 aggregates and vacuoles."}, "LC3 II in HeLa cells": {"tested_on": "LC3 II in HeLa cells", "assay": "Western blotting of LC3 in HeLa cells", "type": "cell-based", "description": "Western blotting is performed as follows: After an incubation of 24 h, the cells are collected and lysed with lysis buffer (purchased from Beyotime Biotechnology, China). The lysate is boiled in boiling water for 10 min, subjected to 15% SDS-PAGE, and then transferred to nylon membrane (purchased from Amersham Inc.) by a wet transfer. In the Western blotting, Anti-LC3 (Light Chain 3 Protein Antibody, purchased from Novus Inc., Catalog #: NB 100-2220) is used as primary antibody; GAPDH (purchased from Millipore Inc.) is used as internal reference; and Horseradish peroxidase (HRP) conjugated goat anti-rabbit IgG (H+L) (Goat Anti-Rabbit IgG (H+L), HRP Conjugate) (purchased from Promega Inc.) is used as secondary antibody.\nHeLa cells were inoculated into a 24-well cell culturing plate at a density of about 3-5×10^4 cells/well, and cultured overnight for further use. At first, the medium was replaced with fresh DMEM medium, and then 100 μg/mL UCN or UCN+RE-1 was added. An equal volume of PBS was used as blank. A mixture of 100 μg/mL UCN and 10 mg/mL PEG was used as negative control. 100 mM trehalose was used as positive control. Then, western blotting assay was performed.\nHeLa cells were inoculated into a 24-well cell culturing plate at a density of about 3-5×10^4 cells/well, and cultured overnight for further use. At first, the medium was replaced with fresh DMEM medium, and then 100 μg/mL UCP or UCP+RE-1 was added. An equal volume of PBS was used as blank. A mixture of 100 μg/mL UCP+AP-1 and a mixture of 400 μg/mL TiO2+AP-1 were used as negative control. 400 μg/mL TiO2 was used as positive control. Then, western blotting assay was performed."}, "[1]": {"assay": "Observation of binding form with UCN by TEM and SEM", "details": "TEM / SEM after washing off unbound", "from_the_text": "The binding forms of RE-1 short peptide and REOB-1 phage with UCN were observed using a transmission electron microscope. The excess unbound polypeptides and phages were washed off from the complex of RE-1 and UCN. The complex was stained with uranium acetate (pH 6.7), and placed on a copper mesh coated with carbon film. A transmission electron microscope TEM (200 kV) (JEM-2100F, JEOL, Japan) was used for observation and imaging (FIG. 5A and FIG. 5B).\nThe binding form of RE-1 peptide to UCN was observed under a scanning electron microscope. The excess unbound polypeptides were washed off from the complex of RE-1 and UCN. The complex was placed on a copper mesh. A scanning electron microscope SEM (15 kV) (JEOL JSM-6700F, JEOL, Japan) was used for observation and imaging (FIG. 5C)."}, "[2]": {"assay": "Sedimentation / suspension time-dynamics curve of UCN (UV 500 nm)", "type": "physicochemical", "details": "standing for 120 min; UCN with or without RE-1 coating", "description": "3 mg of UCN was mixed with 1.5 mg of RE-1 or its analogues RE-2, RE-3, or RE-5 as well as PEG, and the binding between them was performed according to a binding method. The excess and unbound RE-1 was washed off. The resultant precipitate was resuspended in 3 mL water, sonicated for 1 min, and then placed into a UV detection cell (X72053, Alpha Laboratories Ltd, UK). Observation was made using a UV spectrophotometer (DU-640, Beckman, USA) at an absorption wavelength of 500 nm for 120 min to obtain a time-dynamics curve."}, "HeLa cells": {"tested_on": "HeLa cells", "assay": "Effect of RE-1 analogues on cytotoxicity induced by UCN, UCP (MTT, PI staining)", "type": "cell-based", "details": "1 mg/mL, 24 hr", "description": "MTT cell vitality assay is performed as follows: The cells to which samples have been added are cultured for 24 hr, and then 0.5 mg/mL MTT solution is added and cultured for 4 hr. The MTT solution in the well is discharged, and then 200 μL DMSO is added, followed by gently shaking the plate on a shaking table for 10 min. Detection is performed using microplate reader (ELX800, purchased from BIO-TEK) at a wavelength of 570 nm.\nPI staining assay is performed as follows: The cells to which samples have been added are cultured for 24 hr, and then to the culture Hoechst 33342 (10 mM, purchased from Sigma, USA, Catalog #: B2261) and PI (Propidium Iodide) (10 mM, purchased from Beyotime Biotechnology, Catalog #: ST511) are added for 10 min of staining. Then, the cells are detected and photographed under a fluorescence microscope (Olympus IX71, purchased from Olympus). The number of the cells counted by this assay was 500.\nHeLa cells were inoculated into 96-well cell culturing plate at a density of about 1-2×10^4 cells/well, and cultured overnight for further use. At first, the medium was replaced with fresh DMEM medium, and then 1 mg/mL UCN, UCP, UCN+PEG (containing 10 mg PEG), UCN+RE-1, UCP, UCP+RE-1, UCN+RE-2, UCN+RE-3, UCN+RE-5, UCP+RE-2, UCP+RE-3, or UCP+RE-5 were added, respectively. After culturing for 24 hr, MTT cell viability assay and PI staining were performed to detect the mortality of the cells."}}, "data": [{"sequence": "ACTARSPWICG [RE-1, RE-0 with terminal amino acids A and G added]", "values": [{"measurement": "inhibition of cell autophagy induced by UCN, UCP, and UCN-S", "setting": "HeLa-LC3 cells", "value": "significantly inhibited"}, {"measurement": "effect of RE-1 coating of UCN and UCP on LC3 II", "setting": "LC3 II in HeLa cells; 100 μg/mL UCN+RE-1 or UCP+RE-1", "value": "significantly prevented the increase of LC3 II"}, {"measurement": "inhibition of cell autophagy induced by TiO2", "setting": "LC3 II in HeLa cells; 400 μg/mL TiO2", "value": "could not inhibit"}, {"measurement": "binding form on the surface of UCN", "setting": "[1]", "value": "form a stable peptide coating on the surface of UCN"}, {"measurement": "suspension / sedimentation of UCN in water", "setting": "[2]", "value": "still in suspension"}, {"measurement": "inhibitory effect of coating on cytotoxicity induced by UCN and UCP", "setting": "HeLa cells", "value": "RE-1>RE-3>RE-5"}]}]}
